From US20240287575A1, “Role of Human Pegivirus (HPGV) in Parkinson's Disease: Implications for Diagnosis and Treatment” (Northwestern University, priority 2023, published 2024) come the findings set out here.

The assay deals with normal human astrocytes (NHA). The assay is described as follows: Gene expression in NHA exposed to inflammatory cytokines (qPCR). It is filed as cell-based. The conditions noted are these: for SNCA expression induction: NHA exposed to cytokine for 24 hours, no significant difference between infected and uninfected cells; for LCN2 expression induction: NHA, HPgV-infected and uninfected, exposed to cytokine for 24 hours. Here is the method:
As previously stated, iPSC-derived PD astrocytes show increased expression of LCN2 and GFAP following exposure to inflammatory conditions. Inflammation can additionally induce A1 phenotypic skewing in astrocytes.^4 Therefore, the analysis of mtDNA, PD astrocyte-associated genes, and A1/A2 skewing was repeated on NHA that were exposed to the inflammatory cytokine IL1β, IFNγ, or TNFα for 24 hours. mtDNA copy number was reduced in infected cells exposed to cytokines as compared to uninfected cells exposed to cytokines (FIG. 5A; IL1β p=0.0004; IFNγ p=0.001; TNFα p=0.03). […] SNCA expression was induced 10-fold following exposure to IL1β.
Normal human astrocytes (NHA): Cryopreserved NHA were obtained from Lonza. NHA were maintained in Astrocyte Basal Medium with Astrocyte Growth Medium SingleQuot supplements (Lonza). NHA were seeded at 5×10^3 cells/cm and allowed to reach confluency before splitting and seeding into new cell culture vessels, which took approximately 10 days. Medium was changed 24 hours after seeding and every subsequent 48 hours. NHA were discarded at passage 10.
Quantification of PD astrocyte associated gene expression was performed on similarly extracted RNA, following DNAse digestion and isopropanol precipitation. DNAse-treated RNA was resuspended in 50 μL of nuclease-free H2O, quantitated using the Qubit BR ssRNA kit, and diluted to 40 ng/μL. Commercially available TaqMan gene expression assays against GFAP (#Hs00909233; Fisher Scientific), LCN2 (#Hs01008571), SNCA (#Hs00240906), and ITPR2 (#Hs00181916), using FAM as a detector, were each multiplexed with GAPDH (housekeeping gene; #Hs02786624) using VIC as a detector. Each assay was run in duplicate 20 μL reactions, with 5 μL of diluted template RNA, 1 μL of each appropriate 20× assay, and 5 μL of TaqMan Fast Virus 1-step master mix. ΔΔCT was calculated as previously described.
A general note: Quantitative PCR measures a nucleic acid by following its amplification.

As for TNFα, the SNCA expression induction result is reported as “observed to a lesser extent” and the LCN2 expression induction entry is recorded as “significantly induced expression of LCN2 in infected cells but not uninfected cells”. On to IFNγ: inflammatory cytokine, for which the SNCA expression induction entry is “observed to a lesser extent”. As for IL1β: inflammatory cytokine, the SNCA expression induction stood at 10 fold; the LCN2 expression induction result was “induced LCN2 expression in both infected and uninfected cells”.
